Assay results as given in patent publication US20130040882A1, “USE OF FIBROBLAST GROWTH FACTOR FRAGMENTS” (NOVARTIS AG, priority 2003, published 2013).
Several values for one entry are separate records, joined by “and”; a condition that tells them apart may be missing. Equal values may be shown once. Entries after “also recorded” stand apart in the source; their conditions may differ.

Key:
bone tissue = test: Salmon calcitonin/PTS893 monkey study: histomorphometry of bone tissue (tibia, vertebra); type: in vivo, cynomolgus monkeys (Macaca fascicularis)
Description: Bone sections were stained for osteonectin, osteopontin and osteocalcin and were evaluated histopathologically. Histomorphometry of the bone tissue was performed regarding parameters for bone resorption and synthesis (osteoid formation).
Histomorphometry of bone tissue was performed to determine parameters related to bone resorption and bone synthesis (osteoid formation).

[1] = Salmon calcitonin/PTS893 monkey study: in vivo examinations (mortality, food consumption, clinical observations, body weight); parameters: species or system cynomolgus monkeys (Macaca fascicularis); conditions: males
Description: Solvent was used as vehicle for the control group.
The animals used in this analysis were cynomolgus monkeys (Macaca fascicularis), supplied by Centre de Recherches Primatologiques, Port Louis, Mauritius. Two animals were used per group and sex. […] Animals were examined daily for mortality, food consumption and clinical observations. Body weight was recorded once per week.
In vivo examinations. No significant histopathological changes were observed.

[2] = system: gene expression in organs; test: Blind monkey trial of three peptides: gene expression profiling of organs on Affymetrix U95 chips; type: in vivo, cynomolgus monkeys; conditions: 100 μg/animal/day sc, two weeks; listed as Peptide 1
[3] = Routine clinical and biochemical observations in FGF23CTP-treated monkeys; type: in vivo, cynomolgus monkey; conditions: 100 μg/day sc, two weeks
[4] = system: transcript levels in several organs; test: In vivo gene expression profiling screen of peptides in mice (Example I); conditions: administration to mice
Description: In this EXAMPLE, 100 unknown chemically synthesized peptides are functionalized using the discovery method of the invention. Most of these peptides are present in human plasma.
As a control, twenty reference drugs are concurrently investigated with the discovery method of the invention. For this screening, one control and four treated groups of six males are treated for two weeks by daily administration by the subcutaneous route of the proteins. The reference drugs can be active for treating conditions in the areas of glaucoma, neuroprotection, neovascularisation, antiangiogenesis, acne, asthma and allergy, cardiovascular diseases, neurological disorder, pain, diabetes, hypercholesterolemia, osteoporosis and oncology.
The expectations from those selected active peptides are that (a) several potential therapeutic drugs could be identified; (b) target peptides for therapeutic antibodies could be identified; (c) new targets for research, deduced from the reconstructed biochemical pathways, could be identified; and (d) biomarkers, to be used to develop diagnostic tests could be identified. […] The protein/peptide selection rate is approximately 20%. The selection/prioritization criteria are the type of activity, the therapeutic interest and the suspected toxicity.

[5] = system: Insulin-Like Growth Factor Binding Protein 2; test: Serum determination of insulin-like growth factor binding protein 2 in FGF23CTP-treated monkeys; type: in vivo, cynomolgus monkey
Description: At the end of the treatment period samples from all organs are subjected to snap freezing at necropsy and are analyzed with GeneChip® expression profiling.
Serum levels were determined for IGFB2 and found to be decreased, in agreement with the decreased transcript levels in several organs, including the liver.

[6] = tibia, group mean (males and females)
[7] = tibia, individual animals (males and females)
[8] = vertebra, group mean (males and females)
[9] = vertebra, individual animals (males and females)

Molecule: Leu8, Asp10, Lysll, A1a16, G1n18, Thr33, A1a34 human PTH 1-34 [PTS893, Leu8, Asp10, Lysll, A1a16, G1n18, Thr33, A1a34 human PTH 1-34 [hPTH(1-34)]]
- Increase in osteoid surface (bone tissue; tibia): 49%
- Increase in osteoid volume (bone tissue; tibia): 37%
- Increase in the osteoblast surface (bone tissue; tibia): 40%
- Increase of cortical porosity (bone tissue; tibia (T)): 54%
- Reduction of cortical thickness (bone tissue; tibia (T)): 18%
- BT/TV (trabecular bone volume) (bone tissue; [6]): 21.72%
- Ct Por (cortical porosity) (bone tissue; [6]): 2.90%
- Ct Th (cortical thickness) (bone tissue; [6]): 951.48 μm
- ES/BS (eroded surface) (bone tissue; [6]): 4.11%
- OS/BS (osteoid surface) (bone tissue; [6]): 49.25%
- OV/BV (osteoid volume) (bone tissue; [6]): 9.74%
- Obs/BS (osteoblast surface) (bone tissue; [6]): 20.28%
- Tb N (trabecular number) (bone tissue; [6]): 1.85 mm^−1
- Tb Th (trabecular thickness) (bone tissue; [6]): 117.25 μm
- BT/TV (trabecular bone volume) (bone tissue; [7]): 19.69% and 16.65% and 25.74% and 24.78%
- Ct Por (cortical porosity) (bone tissue; [7]): 2.76% and 2.94% (2×) and 2.95%
- Ct Th (cortical thickness) (bone tissue; [7]): 1022.62 μm and 893.43 μm and 950.33 μm and 939.53 μm
- ES/BS (eroded surface) (bone tissue; [7]): 4.62% and 4.76% and 4.21% and 2.85%
- OS/BS (osteoid surface) (bone tissue; [7]): 54.84% and 43.57% and 43.63% and 54.97%
- OV/BV (osteoid volume) (bone tissue; [7]): 11.24% and 9.61% and 8.14% and 9.95%
- Obs/BS (osteoblast surface) (bone tissue; [7]): 16.16% and 21.25% and 18.46% and 25.25%
- Tb N (trabecular number) (bone tissue; [7]): 1.52 mm^−1 and 1.79 mm^−1 and 2.13 mm^−1 and 1.97 mm^−1
- Tb Th (trabecular thickness) (bone tissue; [7]): 129.22 μm and 93.20 μm and 120.52 μm and 126.07 μm
- Increase in osteoid surface (bone tissue; vertebra): 37%
- Increase in osteoid volume (bone tissue; vertebra): 213%
- Increase in the osteoblast surface (bone tissue; vertebra): 24%
- Reduction of cortical thickness and increase of cortical porosity (bone tissue; vertebra (V)): not in vertebra
- BT/TV (trabecular bone volume) (bone tissue; [8]): 20.95%
- Ct Por (cortical porosity) (bone tissue; [8]): 1.07%
- Ct Th (cortical thickness) (bone tissue; [8]): 675.50 μm
- ES/BS (eroded surface) (bone tissue; [8]): 4.53%
- OS/BS (osteoid surface) (bone tissue; [8]): 25.36%
- OV/BV (osteoid volume) (bone tissue; [8]): 4.45%
- Obs/BS (osteoblast surface) (bone tissue; [8]): 9.56%
- Tb N (trabecular number) (bone tissue; [8]): 1.68 mm^−1
- Tb Th (trabecular thickness) (bone tissue; [8]): 123.43 μm
- BT/TV (trabecular bone volume) (bone tissue; [9]): 15.15% and 20.23% and 23.56% and 24.86%
- Ct Por (cortical porosity) (bone tissue; [9]): 1.49% and 1.45% and 0.41% and 0.92%
- Ct Th (cortical thickness) (bone tissue; [9]): 707.43 μm and 629.35 μm and 740.87 μm and 624.35 μm
- ES/BS (eroded surface) (bone tissue; [9]): 9.31% and 2.30% and 2.55% and 3.96%
- OS/BS (osteoid surface) (bone tissue; [9]): 18.84% and 41.28% and 23.65% and 17.66%
- OV/BV (osteoid volume) (bone tissue; [9]): 3.24% and 8.42% and 3.49% and 2.66%
- Obs/BS (osteoblast surface) (bone tissue; [9]): 10.36% and 9.07% and 10.47% and 8.33%
- Tb N (trabecular number) (bone tissue; [9]): 1.44 mm^−1 and 1.70 mm^−1 and 1.75 mm^−1 and 1.84 mm^−1
- Tb Th (trabecular thickness) (bone tissue; [9]): 105.46 μm and 118.79 μm and 134.66 μm and 134.82 μm
- Food Consumption, Avg., Both animals ([1]; average of both animals of the group): 89.6
- Food Consumption, Avg. ([1]; average per individual animal): 87.5 and 91.7
- Food Consumption, Day 1 ([1]; day 1 of SC dosing, individual animals): 100
- Food Consumption, Day 2 ([1]; day 2 of SC dosing, individual animals): 100
- Food Consumption, Day 3 ([1]; day 3 of SC dosing, individual animals): 100
- Food Consumption, Day 4 ([1]; day 4 of SC dosing, individual animals): 100
- Food Consumption, Day 5 ([1]; day 5 of SC dosing, individual animals): 100
- Food Consumption, Day 6 ([1]; day 6 of SC dosing, individual animals): 100
- Food Consumption, Day 7 ([1]; day 7 of SC dosing, individual animals): 100
- Food Consumption, Day 8 ([1]; day 8 of SC dosing, individual animals): 100
- Food Consumption, Day 9 ([1]; day 9 of SC dosing, individual animals): 100
- Food Consumption, Day 10 ([1]; day 10 of SC dosing, individual animals): 100
- Food Consumption, Day 11 ([1]; day 11 of SC dosing, individual animals): 100
- Food Consumption, Day 12 ([1]; day 12 of SC dosing, individual animals): 100
- Food Consumption, Day 13 ([1]; day 13 of SC dosing, individual animals): 50 and 100
- Food Consumption, Day 14 ([1]; day 14 of SC dosing, individual animals): 75 and 100
- Food Consumption, Day −1 ([1]; day −1 (before dosing), individual animals): 100
- Food Consumption, Day −2 ([1]; day −2 (before dosing), individual animals): 75 and 100
- Food Consumption, Day −3 ([1]; day −3 (before dosing), individual animals): 100
- Food Consumption, Day −4 ([1]; day −4 (before dosing), individual animals): 100
- Food Consumption, Day −5 ([1]; day −5 (before dosing), individual animals): 100
- Food Consumption, Day −6 ([1]; day −6 (before dosing), individual animals): 50

Molecule: cyclo[4-(NH2—C2H4—NH—CO—O)Pro-Phg-DTrp-Lys-Tyr(4-Bzl)-Phe] [SOM230]
- Conclusions of the in vivo Profiling by the Data Mining Team: Function/Pathway [2]: Anti-growth activity; also recorded: GI tract/pancreatic; also recorded: Immunosuppression
- Findings by the Data Mining Team: Adrenals (gene with direction) [2]: IGF2−; also recorded: somatostatin−; also recorded: insulin receptor+; also recorded: urocortin+
- Findings by the Data Mining Team: Bone marrow (gene with direction) [2]: VIP− and peptide YY− and cyclin− and GAPDH−
- Findings by the Data Mining Team: Kidney (gene with direction) [2]: Solute carrier protein 9++; also recorded: urocortin+; also recorded: IGF2−; also recorded: beta 2−; also recorded: THRα+
- Findings by the Data Mining Team: Liver (gene with direction) [2]: IGF2− and NMDA receptor+ and glutamate dehydrogenase+ and VIP and insulin− induced protein1 and STR5
- Findings by the Data Mining Team: Pituitary (gene with direction) [2]: IGFR1− and GH1/2− and CSH(L)− and TSH− and CHRH2− and synthase++ and Immunoglobulin−−
- Findings by the Data Mining Team: Spleen (gene with direction) [2]: IGF2− and IGBP6− and insulin receptor− and urocortin+ and Ig− and ribosomal protein −− and Nk cells+
- Findings by the Data Mining Team: Stomach (gene with direction) [2]: Gastrin+; also recorded: hypocretin+; also recorded: glutamate receptor+; also recorded: GABAB−
- Findings by the Data Mining Team: Thymus (gene with direction) [2]: IGFBP1+ and MHC classII− and Ig− and FKBP12− and CD4− and defensin alpha1+,
- Findings by the Data Mining Team: Thyroid (gene with direction) [2]: NPY− and cyclins−− and ATPase calcium channel+ and somatostatin receptor 4−,

B1: FGF23CTP: unique 75-mer COOH-terminal peptide of FGF-23, SEQ ID NO: 2 (peptide, listed as Homo sapiens)
chain: HTRSAEDDSERDPLNVLKPRARMTPAPASCSQELPSAEDNSPMASDPLGVVRGGRVNTHAGGTGPEGCRPFAKFI
- Effect on phosphate metabolism [3]: no effect
- Routine clinical or biochemical changes [3]: No routine clinical or biochemical changes
- Transcript level changes in several organs (activity) [4]: active
- Serum Insulin-Like Growth Factor Binding Protein 2, mean ([5]; 100 μg/day): 893 ng/mL
- Serum Insulin-Like Growth Factor Binding Protein 2, conc ([5]; individual animals, 100 μg/day): 987.6 ng/mL and 596.7 ng/mL and 749.5 ng/mL and 1239.8 ng/mL
- Serum protein levels of circulating IGF2-binding protein ([5]; treated animals, two weeks sc): decreased
